Experimental data from patent US10143747B2, “Breast cancer therapeutics” (IMBA—INSTITUT FÜR MOLEKULARE BIOTECHNOLOGIE GMBH, priority 2010, dated 2018).

Experiments:
RANKL = RANKL mRNA in purified mammary epithelial cells by qRT-PCR after MPA pellet implantation; assay type: in vivo, mouse
Protocol: a,b, Induction of RANKL expression by the progesterone-derivative MPA. Nulliparous wild type females were s.c. implanted with slow-release MPA pellets or treated with surgery sham. a, RANKL mRNA was determined in purified mammary epithelial cells by qRT-PCR three days after implantation. Data are shown as fold change compared to sham treatment (+/−sem) (n=3). b, In situ […] immunostaining of progesterone receptor (PR, red) and RANKL (green) in mammary epithelial cells after 3d MPA treatment. c, Induction of soluble RANKL protein assayed on isolated mammary gland epithelial cells from control, but not in prolactin receptor mutant (PRL-R KO) females on day 3 after s.c. MPA implantation. Mammary glands from sham operated control litter-mates and PRL-R KO females are shown as controls. d, Epithelial proliferation in mammary glands of control littermates and RANK^Δmam females 3 days after sham treatment and MPA implantation. Proliferation was determined by in situ Ki67 immunostaining. e,f, Marked increase of the stem cell-enriched CD24^+CD49^high population (MaSC) in MPA-treated mammary glands in control but not in RANK^Δmam mammary glands. e, Representative FACS profiles showing CD24 and CD49 expression of lineage negative (CD31^− (endothelial cells) CD45^− (hematopoietic cells) […] (erythroid cells)) of mammary MaSCs from MPA- or sham-treated 8-week old virgin females. f, Quantification of MaSC-enriched CD24^+CD49^high population from mammary glands of MPA- or sham-treated virgin RANK^Δmam and littermate control females. For all MaSCs experiments mice were treated with MPA for 3 days. n=4 per group+/−sem. *P<0.05; ***P<0.001 (Student's t-test).
a-d, Induction of RANKL expression by the progesterone-derivative MPA. […] Numbers indicate amino acid residues. c, Expression of total (t) RANKL, RANKL1, RANKL2, and RANKL3 mRNA in purified mammary epithelial cells after three days MPA treatment. β-actin is shown as a control. d, Representative agarose gel of RT-PCR products as in c. e, mRNA expression of various proteases known to shed RANKL from the surface of cells. mRNA was determined in purified mammary epithelial cells by qRT-PCR three days after MPA implantation. […]
a,b, MPA induces RANKL expression in mammary epithelial cells. Nulliparous wild type females were treated with oral gavage of DMBA or oil vehicle, s.c. implanted with slow-release MPA pellets, or treated with sham surgery. a, RANKL mRNA was determined in purified mammary epithelial cells by qRT-PCR 3 days after implantation/oral gavage. […]

[1] = tested on: human SKBR3 breast cancer cells; experiment: Western blotting of RANKL-stimulated SKBR3 cells; assay type: cell-based; conditions: RANKL 1 μg/ml
Protocol: a, Western blotting for phosphorylated (P) p65 NFκB, total p65 NFκB, phosphorylated (P) IκBα, total IκBα, phosphorylated (P) ERK1/2, total ERK1/2, phosphorylated (P) p38-MAPK, and p38-MAPK in human SKBR3 breast cancer cells in response to RANKL stimulation (1 μg/ml). Data are representative of 3 experiments. b, Growth curve of SKBR3 breast cancer cells cultured in normal growth medium (control, DMEM supplemented with 10% FCS) or in the presence of RANKL (1 μg/ml). Cell numbers were determined by counting live cells (trypan blue-exclusion) over 3 days. c, Onset of palpable mammary tumors in NFATc1^Δmam (n=10) and age matched littermate control (n=16) females treated with MPA pellets and DMBA. Data are shown as percentage of tumor free mice after the last DMBA challenge. No significant difference was found. d, Quantification of NFATc1 mRNA expression in purified mammary epithelial cells (MECs) and MPA-driven mammary tumors from NFATc1^Δmam and littermate control females. mRNA was determined by qRT-PCR. Data are shown as fold change compared to control (+/−sem). n=5 Per group. *P<0.05 (Student's t-test).
The human epithelial breast tumor cell line SKBR3 and primary non-transformed mouse mammary epithelial cells were left untreated or stimulated with recombinant murine RANKL^ref. 9. Adenocarcinomas were isolated from control and mutant mice and total protein lysates prepared. […]

## CC(=O)O[C@]1(C(C)=O)CC[C@H]2[C@@H]3C[C@H](C)C4=CC(=O)CC[C@]4(C)[C@H]3CC[C@@]21C [MPA, medroxyprogesterone acetate]
RANKL; 3 days after MPA implantation, qRT-PCR
  mRNA of proteases known to shed RANKL (MMP14, ADAM17/TACE): induction of MMP14 and ADAM17/TACE
RANKL; 3 days after implantation/oral gavage, qRT-PCR and Western blot
  RANKL mRNA and protein expression in purified mammary epithelial cells: induced RANKL mRNA and protein expression
RANKL; MPA pellets implanted
  mRNA expression of RANK, OPG, PTHrP and TRAIL in isolated mammary epithelial cells: not changed
RANKL; s.c. slow-release MPA pellets, 3 days, vs sham, wild type females
  induction of RANKL mRNA in isolated mammary epithelial cells: more than 2000 fold

B1: RANKL: recombinant RANKL protein, ligand of RANK, used as stimulus (1 μg/ml or 1 μg i.p.) (protein, UniProt O35235 139-316, looked up)
Tumor necrosis factor ligand …: FSGAPAMMEGSWLDVAQRGKPEAQPFAHLTINAASIPSGSHKVTLSSWYHDRGWAKISNMTLSNGKLRVNQDGFYYLYANICFRHHETSGSVPTDYLQLMVYVVKTSIKIPSSHNLMKGGSTKNWSGNSEFHFYSINVGGFFKLRAGEEISIQVSNPSLLDPDQDATYFGAFKVQDID
[1]
  NFκB, p38-MAPKs and ERK activation: induced NFκB, p38-MAPKs and ERK activation
